Results from publication PMC12454493, “Insight on novel sulfamoylphenyl pyrazole derivatives as anticancer carbonic anhydrase inhibitors” (Molecular Diversity, 2024).
Values joined by “and” are separate entries in the source; they are usually repeats but may differ in a detail not shown here. Identical values can stand only once.

Tests used:
hCA XII = hCA XII (Homo sapiens, UniProt O43570); assay: CA inhibitory activity, spectrophotometric p-NPA assay; format: biochemical; conditions: p-NPA substrate, pH 7.5, 25 °C, triplicate; read-out: IC50 (µM) ± SD hCA XII
TK-10 = assay: NCI-60 one-dose SRB screen (Renal Cancer); format: cell-based; conditions: Homo sapiens, single dose 10 µM, 48 h, read-out: Growth inhibition percent (GI %)
UO-31 = assay: NCI-60 one-dose SRB screen (Renal Cancer); format: cell-based; conditions: Homo sapiens, single dose 10 µM, 48 h, read-out: Growth inhibition percent (GI %)
CAKI-1 = assay: NCI-60 one-dose SRB screen (Renal Cancer); format: cell-based; conditions: Homo sapiens, single dose 10 µM, 48 h, read-out: Growth inhibition percent (GI %)
ACHN = assay: NCI-60 one-dose SRB screen (Renal Cancer); format: cell-based; conditions: Homo sapiens, single dose 10 µM, 48 h, read-out: Growth inhibition percent (GI %)
RXF 393 = assay: NCI-60 one-dose SRB screen (Renal Cancer); format: cell-based; conditions: Homo sapiens, single dose 10 µM, 48 h, read-out: Growth inhibition percent (GI %)
786-0 = assay: NCI-60 one-dose SRB screen (Renal Cancer); format: cell-based; conditions: Homo sapiens, single dose 10 µM, 48 h, read-out: Growth inhibition percent (GI %)
A498 = assay: NCI-60 one-dose SRB screen (Renal Cancer); format: cell-based; conditions: Homo sapiens, single dose 10 µM, 48 h, read-out: Growth inhibition percent (GI %)
hCA IX = hCA IX (Homo sapiens, UniProt Q16790); assay: CA inhibitory activity, spectrophotometric p-NPA assay; format: biochemical; conditions: p-NPA substrate, pH 7.5, 25 °C, triplicate; read-out: IC50 (µM) ± SD hCA IX
SNB-75 = assay: NCI-60 one-dose SRB screen (CNS Cancer); format: cell-based; conditions: Homo sapiens, single dose 10 µM, 48 h, read-out: Growth inhibition percent (GI %)
SF-295 = assay: NCI-60 one-dose SRB screen (CNS Cancer); format: cell-based; conditions: Homo sapiens, single dose 10 µM, 48 h, read-out: Growth inhibition percent (GI %)
SF-268 = assay: NCI-60 one-dose SRB screen (CNS Cancer); format: cell-based; conditions: Homo sapiens, single dose 10 µM, 48 h, read-out: Growth inhibition percent (GI %)
SNB-19 = assay: NCI-60 one-dose SRB screen (CNS Cancer); format: cell-based; conditions: Homo sapiens, single dose 10 µM, 48 h, read-out: Growth inhibition percent (GI %)
U251 = assay: NCI-60 one-dose SRB screen (CNS Cancer); format: cell-based; conditions: Homo sapiens, U-251, single dose 10 µM, 48 h, read-out: Growth inhibition percent (GI %)
SF-539 = assay: NCI-60 one-dose SRB screen (CNS Cancer); format: cell-based; conditions: Homo sapiens, single dose 10 µM, 48 h, read-out: Growth inhibition percent (GI %)
K-562 = assay: NCI-60 one-dose SRB screen (Leukemia); format: cell-based; conditions: Homo sapiens, K562, single dose 10 µM, 48 h, read-out: Growth inhibition percent (GI %)
RPMI-8226 = assay: NCI-60 one-dose SRB screen (Leukemia); format: cell-based; conditions: Homo sapiens, single dose 10 µM, 48 h, read-out: Growth inhibition percent (GI %)
MOLT-4 = assay: NCI-60 one-dose SRB screen (Leukemia); format: cell-based; conditions: Homo sapiens, single dose 10 µM, 48 h, read-out: Growth inhibition percent (GI %)
SR = assay: NCI-60 one-dose SRB screen (Leukemia); format: cell-based; conditions: Homo sapiens, single dose 10 µM, 48 h, read-out: Growth inhibition percent (GI %)
CCRF-CEM = assay: NCI-60 one-dose SRB screen (Leukemia); format: cell-based; conditions: Homo sapiens, single dose 10 µM, 48 h, read-out: Growth inhibition percent (GI %)
HL-60(TB) = assay: NCI-60 one-dose SRB screen (Leukemia); format: cell-based; conditions: Homo sapiens, single dose 10 µM, 48 h, read-out: Growth inhibition percent (GI %)
NCI-H522 = assay: NCI-60 one-dose SRB screen (Non-Small Cell Lung Cancer); format: cell-based; conditions: Homo sapiens, single dose 10 µM, 48 h, read-out: Growth inhibition percent (GI %)
HOP-62 = assay: as above; format: cell-based; conditions: Homo sapiens, single dose 10 µM, 48 h, read-out: Growth inhibition percent (GI %)
NCI-H23 = assay: as above; format: cell-based; conditions: Homo sapiens, single dose 10 µM, 48 h, read-out: Growth inhibition percent (GI %)
EKVX = assay: as above; format: cell-based; conditions: Homo sapiens, single dose 10 µM, 48 h, read-out: Growth inhibition percent (GI %)
NCI-H226 = assay: as above; format: cell-based; conditions: Homo sapiens, single dose 10 µM, 48 h, read-out: Growth inhibition percent (GI %)
NCI-H460 = assay: as above; format: cell-based; conditions: Homo sapiens, single dose 10 µM, 48 h, read-out: Growth inhibition percent (GI %)
NCI-H322M = assay: as above; format: cell-based; conditions: Homo sapiens, single dose 10 µM, 48 h, read-out: Growth inhibition percent (GI %)
HOP-92 = assay: as above; format: cell-based; conditions: Homo sapiens, single dose 10 µM, 48 h, read-out: Growth inhibition percent (GI %)
A549/ATCC = assay: as above; format: cell-based; conditions: Homo sapiens, single dose 10 µM, 48 h, read-out: Growth inhibition percent (GI %)
COLO 205 = assay: NCI-60 one-dose SRB screen (Colon Cancer); format: cell-based; conditions: Homo sapiens, single dose 10 µM, 48 h, read-out: Growth inhibition percent (GI %)
KM12 = assay: NCI-60 one-dose SRB screen (Colon Cancer); format: cell-based; conditions: Homo sapiens, single dose 10 µM, 48 h, read-out: Growth inhibition percent (GI %)
HCC-2998 = assay: NCI-60 one-dose SRB screen (Colon Cancer); format: cell-based; conditions: Homo sapiens, single dose 10 µM, 48 h, read-out: Growth inhibition percent (GI %)
HCT-15 = assay: NCI-60 one-dose SRB screen (Colon Cancer); format: cell-based; conditions: Homo sapiens, single dose 10 µM, 48 h, read-out: Growth inhibition percent (GI %)
HT29 = assay: NCI-60 one-dose SRB screen (Colon Cancer); format: cell-based; conditions: Homo sapiens, HT-29, single dose 10 µM, 48 h, read-out: Growth inhibition percent (GI %)
HCT-116 = assay: NCI-60 one-dose SRB screen (Colon Cancer); format: cell-based; conditions: Homo sapiens, single dose 10 µM, 48 h, read-out: Growth inhibition percent (GI %)
SW-620 = assay: NCI-60 one-dose SRB screen (Colon Cancer); format: cell-based; conditions: Homo sapiens, single dose 10 µM, 48 h, read-out: Growth inhibition percent (GI %)
SK-MEL-5 = assay: NCI-60 one-dose SRB screen (Melanoma); format: cell-based; conditions: Homo sapiens, single dose 10 µM, 48 h, read-out: Growth inhibition percent (GI %)
UACC-62 = assay: NCI-60 one-dose SRB screen (Melanoma); format: cell-based; conditions: Homo sapiens, single dose 10 µM, 48 h, read-out: Growth inhibition percent (GI %)
MALME-3M = assay: NCI-60 one-dose SRB screen (Melanoma); format: cell-based; conditions: Homo sapiens, single dose 10 µM, 48 h, read-out: Growth inhibition percent (GI %)
UACC-257 = assay: NCI-60 one-dose SRB screen (Melanoma); format: cell-based; conditions: Homo sapiens, single dose 10 µM, 48 h, read-out: Growth inhibition percent (GI %)
SK-MEL-2 = assay: NCI-60 one-dose SRB screen (Melanoma); format: cell-based; conditions: Homo sapiens, single dose 10 µM, 48 h, read-out: Growth inhibition percent (GI %)
M14 = assay: NCI-60 one-dose SRB screen (Melanoma); format: cell-based; conditions: Homo sapiens, single dose 10 µM, 48 h, read-out: Growth inhibition percent (GI %)
SK-MEL-28 = assay: NCI-60 one-dose SRB screen (Melanoma); format: cell-based; conditions: Homo sapiens, single dose 10 µM, 48 h, read-out: Growth inhibition percent (GI %)
MDA-MB-435 = assay: NCI-60 one-dose SRB screen (Melanoma); format: cell-based; conditions: Homo sapiens, single dose 10 µM, 48 h, read-out: Growth inhibition percent (GI %)
SN12C = assay: NCI-60 one-dose SRB screen (Renal Cancer); format: cell-based; conditions: Homo sapiens, single dose 10 µM, 48 h, read-out: Growth inhibition percent (GI %)

Sequence of hCA XII (O43570 25-354): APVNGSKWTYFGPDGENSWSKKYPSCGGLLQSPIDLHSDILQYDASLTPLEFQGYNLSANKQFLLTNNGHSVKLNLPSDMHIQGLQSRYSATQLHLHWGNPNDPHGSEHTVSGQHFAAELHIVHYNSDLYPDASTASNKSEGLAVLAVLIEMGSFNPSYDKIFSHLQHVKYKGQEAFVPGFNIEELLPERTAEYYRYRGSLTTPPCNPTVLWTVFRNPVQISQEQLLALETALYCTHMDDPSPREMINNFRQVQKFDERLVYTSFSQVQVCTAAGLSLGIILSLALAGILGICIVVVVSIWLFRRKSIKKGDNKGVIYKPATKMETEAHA

NC(=S)NNC(=O)c1cn(-c2ccc(S(N)(=O)=O)cc2)nc1-c1ccccc1 [Compound 9a, 2-[3-Phenyl-1-(4-sulfamoylphenyl)-1H-pyrazole-4-carbonyl] hydrazine-1-carbothioamide]
IC50 (hCA XII): 0.605 ± 0.023 µM
inhibition at 10 µM (TK-10): 12.3%
inhibition at 10 µM (UO-31): < 5%
inhibition at 10 µM (CAKI-1): < 5%
inhibition at 10 µM (ACHN): < 5%
inhibition at 10 µM (RXF 393): < 5%
inhibition at 10 µM (786-0): 9.98%
inhibition at 10 µM (A498): < 5%
melting point: 180 to 181 °C
IC50 (hCA IX): 0.21 µM and 0.215 µM
inhibition at 10 µM (SNB-75): < 5%
inhibition at 10 µM (SF-295): < 5%
inhibition at 10 µM (SF-268): < 5%
inhibition at 10 µM (SNB-19): < 5%
inhibition at 10 µM (U251): < 5%
inhibition at 10 µM (SF-539): 6.07%
inhibition at 10 µM (K-562): < 5%
inhibition at 10 µM (RPMI-8226): < 5%
inhibition at 10 µM (MOLT-4): < 5%
inhibition at 10 µM (SR): < 5%
inhibition at 10 µM (CCRF-CEM): < 5%
inhibition at 10 µM (HL-60(TB)): < 5%
inhibition at 10 µM (NCI-H522): 23.9%
inhibition at 10 µM (HOP-62): 8.3%
inhibition at 10 µM (NCI-H23): < 5%
inhibition at 10 µM (EKVX): < 5%
inhibition at 10 µM (NCI-H226): < 5%
inhibition at 10 µM (NCI-H460): < 5%
inhibition at 10 µM (NCI-H322M): < 5%
inhibition at 10 µM (HOP-92): < 5%
inhibition at 10 µM (A549/ATCC): 10.9%
inhibition at 10 µM (COLO 205): < 5%
inhibition at 10 µM (KM12): < 5%
inhibition at 10 µM (HCC-2998): < 5%
inhibition at 10 µM (HCT-15): < 5%
inhibition at 10 µM (HT29): 10.8%
inhibition at 10 µM (HCT-116): < 5%
inhibition at 10 µM (SW-620): < 5%
inhibition at 10 µM (SK-MEL-5): < 5%
inhibition at 10 µM (UACC-62): 8.26%
inhibition at 10 µM (MALME-3M): < 5%
inhibition at 10 µM (UACC-257): < 5%
inhibition at 10 µM (SK-MEL-2): < 5%
inhibition at 10 µM (M14): < 5%
inhibition at 10 µM (SK-MEL-28): < 5%
inhibition at 10 µM (MDA-MB-435): < 5%

NC(=S)NNC(=O)c1cn(-c2ccc(S(N)(=O)=O)cc2)nc1-c1ccc(Br)cc1 [Compound 9d, 2-[3-(4-Bromophenyl)-1-(4-sulfamoylphenyl)-1H-pyrazole-4-carbonyl] hydrazine-1-carbothioamide]
IC50 (hCA XII): 1.42 ± 0.053 µM
inhibition at 10 µM (TK-10): < 5%
inhibition at 10 µM (UO-31): 14.7%
inhibition at 10 µM (CAKI-1): 12.1%
inhibition at 10 µM (SN12C): < 5%
inhibition at 10 µM (ACHN): < 5%
inhibition at 10 µM (RXF 393): < 5%
inhibition at 10 µM (786-0): < 5%
inhibition at 10 µM (A498): < 5%
melting point: 238 to 241 °C
inhibition at 10 µM (SNB-75): 12.1%
inhibition at 10 µM (SF-295): < 5%
inhibition at 10 µM (SF-268): < 5%
inhibition at 10 µM (SNB-19): < 5%
inhibition at 10 µM (U251): < 5%
inhibition at 10 µM (SF-539): 6.59%
inhibition at 10 µM (K-562): < 5%
inhibition at 10 µM (RPMI-8226): < 5%
inhibition at 10 µM (MOLT-4): < 5%
inhibition at 10 µM (SR): 6.97%
inhibition at 10 µM (CCRF-CEM): < 5%
inhibition at 10 µM (HL-60(TB)): < 5%
inhibition at 10 µM (NCI-H522): 8.15%
inhibition at 10 µM (HOP-62): < 5%
inhibition at 10 µM (NCI-H23): < 5%
inhibition at 10 µM (EKVX): < 5%
inhibition at 10 µM (NCI-H226): < 5%
inhibition at 10 µM (NCI-H460): < 5%
inhibition at 10 µM (NCI-H322M): 14.9%
inhibition at 10 µM (HOP-92): < 5%
inhibition at 10 µM (A549/ATCC): < 5%
inhibition at 10 µM (COLO 205): < 5%
inhibition at 10 µM (KM12): < 5%
inhibition at 10 µM (HCC-2998): < 5%
inhibition at 10 µM (HCT-15): < 5%
inhibition at 10 µM (HT29): < 5%
inhibition at 10 µM (HCT-116): < 5%
inhibition at 10 µM (SW-620): < 5%
inhibition at 10 µM (SK-MEL-5): < 5%
inhibition at 10 µM (UACC-62): < 5%
inhibition at 10 µM (MALME-3M): 10.9%
inhibition at 10 µM (UACC-257): < 5%
inhibition at 10 µM (SK-MEL-2): < 5%
inhibition at 10 µM (M14): < 5%
inhibition at 10 µM (SK-MEL-28): < 5%
inhibition at 10 µM (MDA-MB-435): < 5%
